Measurements as given in the kinase profiling compilation of Christmann-Franck et al. (2016).

What was measured:
Assay in all cases: KINOMEscan competition binding
Conditions in all cases: compound 10.0 µM
[1] = target: CSF1R (human) (UniProt P07333)
[2] = target: MYLK3 (human) (UniProt Q32MK0)
[3] = target: MAP3K9 (human) (UniProt P80192)
[4] = target: MAPK9 (human) (UniProt P45984)
[5] = target: HIPK4 (human) (UniProt Q8NE63)
[6] = target: SIK1 (human) (UniProt P57059)
[7] = target: PRPF4B (human) (UniProt Q13523)
[8] = target: GSK3A (human) (UniProt P49840)
Sequence of GSK3A (human) (P49840 whole entry, looked up): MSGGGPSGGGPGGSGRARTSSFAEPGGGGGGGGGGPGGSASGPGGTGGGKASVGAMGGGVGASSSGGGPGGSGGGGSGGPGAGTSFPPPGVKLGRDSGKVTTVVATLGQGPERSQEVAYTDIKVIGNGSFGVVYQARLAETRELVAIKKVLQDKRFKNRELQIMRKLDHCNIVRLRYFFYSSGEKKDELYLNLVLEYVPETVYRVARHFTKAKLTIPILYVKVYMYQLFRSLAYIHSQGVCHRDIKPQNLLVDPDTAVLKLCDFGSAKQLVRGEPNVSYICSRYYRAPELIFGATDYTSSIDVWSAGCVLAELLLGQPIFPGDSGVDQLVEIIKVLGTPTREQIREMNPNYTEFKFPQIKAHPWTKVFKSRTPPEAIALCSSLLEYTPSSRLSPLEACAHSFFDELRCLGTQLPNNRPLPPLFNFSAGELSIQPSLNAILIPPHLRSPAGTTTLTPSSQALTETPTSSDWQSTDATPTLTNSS

[9] = target: BRSK2 (human) (UniProt Q8IWQ3)
[10] = target: PDGFRA (human) (UniProt P16234)
[11] = target: GRK7 (human) (UniProt Q8WTQ7)
Sequence of GRK7 (human) (Q8WTQ7 whole entry, looked up): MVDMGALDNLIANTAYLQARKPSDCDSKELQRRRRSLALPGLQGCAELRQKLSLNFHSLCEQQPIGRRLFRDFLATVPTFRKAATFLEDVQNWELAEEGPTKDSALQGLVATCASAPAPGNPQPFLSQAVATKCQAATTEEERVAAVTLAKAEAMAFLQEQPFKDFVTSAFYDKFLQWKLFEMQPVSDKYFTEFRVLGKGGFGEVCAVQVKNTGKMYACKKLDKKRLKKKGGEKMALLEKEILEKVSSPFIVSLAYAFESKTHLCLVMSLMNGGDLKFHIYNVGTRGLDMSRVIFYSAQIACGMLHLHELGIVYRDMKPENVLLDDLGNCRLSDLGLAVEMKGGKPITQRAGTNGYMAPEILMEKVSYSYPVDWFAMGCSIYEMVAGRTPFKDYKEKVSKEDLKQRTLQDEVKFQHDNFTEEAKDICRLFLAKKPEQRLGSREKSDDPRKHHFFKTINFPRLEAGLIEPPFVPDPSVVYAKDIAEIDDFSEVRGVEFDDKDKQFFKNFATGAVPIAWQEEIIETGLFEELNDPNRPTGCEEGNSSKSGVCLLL

[12] = target: ERBB2 (human) (UniProt P04626)
[13] = target: CDK13 (human) (UniProt Q14004)
[14] = target: GAK (human) (UniProt O14976)
[15] = target: MAP4K2 (human) (UniProt Q12851)
Sequence of MAP4K2 (human) (Q12851 whole entry, looked up): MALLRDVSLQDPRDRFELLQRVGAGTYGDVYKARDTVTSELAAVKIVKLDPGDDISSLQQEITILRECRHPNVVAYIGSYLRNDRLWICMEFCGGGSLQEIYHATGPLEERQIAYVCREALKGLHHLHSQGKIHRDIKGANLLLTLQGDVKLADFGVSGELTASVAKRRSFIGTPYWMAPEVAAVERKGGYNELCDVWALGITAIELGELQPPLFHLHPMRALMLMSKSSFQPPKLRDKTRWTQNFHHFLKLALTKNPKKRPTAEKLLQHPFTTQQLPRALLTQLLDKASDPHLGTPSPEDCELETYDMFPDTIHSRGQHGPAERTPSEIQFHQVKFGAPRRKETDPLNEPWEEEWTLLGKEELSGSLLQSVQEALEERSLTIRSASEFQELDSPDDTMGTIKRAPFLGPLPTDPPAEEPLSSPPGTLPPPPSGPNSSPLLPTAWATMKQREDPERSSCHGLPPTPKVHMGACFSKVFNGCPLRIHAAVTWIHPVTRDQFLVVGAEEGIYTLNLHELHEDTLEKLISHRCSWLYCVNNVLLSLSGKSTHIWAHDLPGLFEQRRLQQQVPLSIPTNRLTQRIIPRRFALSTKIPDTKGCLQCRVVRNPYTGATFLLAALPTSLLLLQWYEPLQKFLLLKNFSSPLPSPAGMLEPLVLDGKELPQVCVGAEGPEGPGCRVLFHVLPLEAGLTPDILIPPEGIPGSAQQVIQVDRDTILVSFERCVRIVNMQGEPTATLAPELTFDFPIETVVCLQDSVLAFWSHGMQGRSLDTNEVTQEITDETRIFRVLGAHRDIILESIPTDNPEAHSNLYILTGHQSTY

[16] = target: LIMK1 (human) (UniProt P53667)
[17] = target: MAP4K1 (human) (UniProt Q92918)
Sequence of MAP4K1 (human) (Q92918 whole entry, looked up): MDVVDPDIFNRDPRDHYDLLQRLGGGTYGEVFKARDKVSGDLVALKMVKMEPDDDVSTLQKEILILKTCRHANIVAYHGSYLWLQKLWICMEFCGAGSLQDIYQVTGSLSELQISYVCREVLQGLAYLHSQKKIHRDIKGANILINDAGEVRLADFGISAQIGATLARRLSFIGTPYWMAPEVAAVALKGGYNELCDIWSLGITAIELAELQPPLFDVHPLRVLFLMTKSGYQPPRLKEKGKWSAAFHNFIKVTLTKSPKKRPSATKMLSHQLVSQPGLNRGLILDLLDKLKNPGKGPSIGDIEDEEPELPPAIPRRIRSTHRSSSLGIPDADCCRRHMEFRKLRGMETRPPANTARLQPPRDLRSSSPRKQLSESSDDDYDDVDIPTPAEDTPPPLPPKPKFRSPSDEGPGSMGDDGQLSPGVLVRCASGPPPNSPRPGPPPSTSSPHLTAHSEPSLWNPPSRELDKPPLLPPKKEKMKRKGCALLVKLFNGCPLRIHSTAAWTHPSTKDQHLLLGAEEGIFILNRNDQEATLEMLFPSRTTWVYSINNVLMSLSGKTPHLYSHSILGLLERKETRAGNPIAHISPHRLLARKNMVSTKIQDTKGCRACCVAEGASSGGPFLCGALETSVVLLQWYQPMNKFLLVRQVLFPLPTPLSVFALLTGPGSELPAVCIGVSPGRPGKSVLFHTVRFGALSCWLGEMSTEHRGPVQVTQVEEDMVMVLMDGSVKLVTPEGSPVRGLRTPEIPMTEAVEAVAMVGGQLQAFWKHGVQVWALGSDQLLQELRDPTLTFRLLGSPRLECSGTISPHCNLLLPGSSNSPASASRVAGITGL

[18] = target: CDK17 (human) (UniProt Q00537)
[19] = target: PLK3 (human) (UniProt Q9H4B4)
[20] = target: TBK1 (human) (UniProt Q9UHD2)
[21] = target: CDK14 (human) (UniProt O94921)
[22] = target: NTRK2 (human) (UniProt Q16620)
[23] = target: CSNK1G2 (human) (UniProt P78368)
[24] = target: RET (human) (UniProt P07949)
[25] = target: SGK3 (human) (UniProt Q96BR1)
[26] = target: MST4 (human) (UniProt Q9P289)
[27] = target: PAK4 (human) (UniProt O96013)
[28] = target: MLTK (human) (UniProt Q9NYL2)
[29] = target: MAP2K3 (human) (UniProt P46734)
[30] = target: MAPK10 (human) (UniProt P53779)
[31] = target: FLT4 (human) (UniProt P35916)
Sequence of FLT4 (human) (P35916 whole entry, looked up): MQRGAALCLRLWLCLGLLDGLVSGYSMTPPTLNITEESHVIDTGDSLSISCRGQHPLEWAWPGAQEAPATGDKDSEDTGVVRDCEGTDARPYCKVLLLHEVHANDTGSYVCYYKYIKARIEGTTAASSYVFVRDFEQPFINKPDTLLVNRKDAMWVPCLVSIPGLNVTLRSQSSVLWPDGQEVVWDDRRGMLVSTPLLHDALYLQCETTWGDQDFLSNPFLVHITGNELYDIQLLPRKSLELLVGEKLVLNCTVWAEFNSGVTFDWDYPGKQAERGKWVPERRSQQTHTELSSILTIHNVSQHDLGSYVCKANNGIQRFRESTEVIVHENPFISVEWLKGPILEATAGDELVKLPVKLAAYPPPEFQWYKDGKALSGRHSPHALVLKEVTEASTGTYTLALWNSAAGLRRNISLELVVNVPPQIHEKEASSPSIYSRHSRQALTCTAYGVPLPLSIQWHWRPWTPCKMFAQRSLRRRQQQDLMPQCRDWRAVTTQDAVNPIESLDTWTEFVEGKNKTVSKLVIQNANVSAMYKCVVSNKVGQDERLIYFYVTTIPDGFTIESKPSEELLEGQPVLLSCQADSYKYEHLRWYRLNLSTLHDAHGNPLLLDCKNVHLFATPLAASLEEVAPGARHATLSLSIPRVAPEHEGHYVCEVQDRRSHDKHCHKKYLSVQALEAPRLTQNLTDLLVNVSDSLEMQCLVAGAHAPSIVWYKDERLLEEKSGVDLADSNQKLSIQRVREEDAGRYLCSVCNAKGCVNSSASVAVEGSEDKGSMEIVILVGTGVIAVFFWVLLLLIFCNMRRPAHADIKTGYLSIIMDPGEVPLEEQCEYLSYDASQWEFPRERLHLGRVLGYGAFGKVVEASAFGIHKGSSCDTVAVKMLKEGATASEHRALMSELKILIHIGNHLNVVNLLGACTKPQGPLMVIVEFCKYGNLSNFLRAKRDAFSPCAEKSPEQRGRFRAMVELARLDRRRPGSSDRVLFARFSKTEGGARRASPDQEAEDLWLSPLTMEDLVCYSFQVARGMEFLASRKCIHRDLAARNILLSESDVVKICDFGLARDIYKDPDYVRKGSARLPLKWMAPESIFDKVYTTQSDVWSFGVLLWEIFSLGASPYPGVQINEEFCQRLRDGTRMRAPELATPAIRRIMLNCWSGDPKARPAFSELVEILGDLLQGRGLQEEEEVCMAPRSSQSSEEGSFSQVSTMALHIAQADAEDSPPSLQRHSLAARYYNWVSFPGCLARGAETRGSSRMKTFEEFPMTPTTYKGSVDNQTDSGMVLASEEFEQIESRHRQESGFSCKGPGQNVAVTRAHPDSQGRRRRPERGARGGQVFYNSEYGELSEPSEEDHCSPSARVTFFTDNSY

[32] = target: FES (human) (UniProt P07332)
[33] = target: FGFR4 (human) (UniProt P22455)
[34] = target: PIP4K2B (human) (UniProt P78356)
[35] = target: MAP4K5 (human) (UniProt Q9Y4K4)
[36] = target: DAPK3 (human) (UniProt O43293)
[37] = target: STK33 (human) (UniProt Q9BYT3)
[38] = target: STK39 (human) (UniProt Q9UEW8)
[39] = test system: MET (human), P08581 [M1250T]
[40] = test system: PIK3CA (human), P42336 [H1047L]

Sequence of CSF1R (human) (P07333 whole entry, looked up): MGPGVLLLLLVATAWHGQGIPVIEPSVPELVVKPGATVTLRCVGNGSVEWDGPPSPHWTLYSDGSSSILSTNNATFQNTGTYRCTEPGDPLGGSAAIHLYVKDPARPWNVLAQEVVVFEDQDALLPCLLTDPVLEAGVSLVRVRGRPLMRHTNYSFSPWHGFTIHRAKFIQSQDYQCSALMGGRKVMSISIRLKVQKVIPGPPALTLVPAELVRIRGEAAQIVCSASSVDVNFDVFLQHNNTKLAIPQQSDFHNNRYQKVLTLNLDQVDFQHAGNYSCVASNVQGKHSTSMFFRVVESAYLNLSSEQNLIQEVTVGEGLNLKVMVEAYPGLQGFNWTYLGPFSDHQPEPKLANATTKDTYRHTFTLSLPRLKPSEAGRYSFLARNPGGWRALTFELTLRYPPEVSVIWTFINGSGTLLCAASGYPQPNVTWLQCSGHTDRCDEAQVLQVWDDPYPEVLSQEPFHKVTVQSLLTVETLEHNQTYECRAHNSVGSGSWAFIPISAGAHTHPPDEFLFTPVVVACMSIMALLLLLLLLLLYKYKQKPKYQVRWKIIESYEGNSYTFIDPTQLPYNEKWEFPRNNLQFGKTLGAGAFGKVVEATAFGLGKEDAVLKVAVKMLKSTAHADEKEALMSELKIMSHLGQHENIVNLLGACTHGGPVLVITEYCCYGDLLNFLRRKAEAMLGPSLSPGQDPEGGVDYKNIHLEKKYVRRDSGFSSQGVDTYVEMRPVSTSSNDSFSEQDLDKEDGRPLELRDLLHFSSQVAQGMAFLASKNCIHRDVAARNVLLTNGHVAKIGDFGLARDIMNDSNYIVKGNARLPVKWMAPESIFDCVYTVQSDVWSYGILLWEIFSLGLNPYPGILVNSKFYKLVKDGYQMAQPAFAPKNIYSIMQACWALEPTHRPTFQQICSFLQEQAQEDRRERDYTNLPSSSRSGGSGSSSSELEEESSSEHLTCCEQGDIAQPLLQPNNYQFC

SMILES	kinase still bound, per cent of control [1] [%]	kinase still bound, per cent of control [2] [%]	kinase still bound, per cent of control [3] [%]	kinase still bound, per cent of control [4] [%]	kinase still bound, per cent of control [5] [%]	kinase still bound, per cent of control [6] [%]	kinase still bound, per cent of control [7] [%]	kinase still bound, per cent of control [8] [%]	kinase still bound, per cent of control [9] [%]	kinase still bound, per cent of control [10] [%]	kinase still bound, per cent of control [11] [%]	kinase still bound, per cent of control [12] [%]	kinase still bound, per cent of control [13] [%]	kinase still bound, per cent of control [14] [%]	kinase still bound, per cent of control [15] [%]	kinase still bound, per cent of control [16] [%]	kinase still bound, per cent of control [17] [%]	kinase still bound, per cent of control [18] [%]	kinase still bound, per cent of control [19] [%]	kinase still bound, per cent of control [20] [%]	further results
CC1=C(C(=O)Nc2cc3cn[nH]c3cc2F)C(c2ccc(C(F)(F)F)cc2)CC(=O)N1 (centres undefined)	68	92	93	92	86	77	86	100	90	84	75	71	24	100	96	100	87	91	84	82	kinase still bound, per cent of control [21]: 89%; kinase still bound, per cent of control [22]: 76%; kinase still bound, per cent of control [23]: 100%; kinase still bound, per cent of control [24]: 20%; kinase still bound, per cent of control [25]: 100%; kinase still bound, per cent of control [26]: 24%; kinase still bound, per cent of control [27]: 85%; kinase still bound, per cent of control [28]: 92%; kinase still bound, per cent of control [29]: 67%; kinase still bound, per cent of control [30]: 88%; kinase still bound, per cent of control [31]: 94%; kinase still bound, per cent of control [32]: 95%; kinase still bound, per cent of control [33]: 67%; kinase still bound, per cent of control [34]: 100%; kinase still bound, per cent of control [35]: 90%; kinase still bound, per cent of control [36]: 77%; kinase still bound, per cent of control [37]: 36%; kinase still bound, per cent of control [38]: 86%; kinase still bound, per cent of control [39]: 23%; kinase still bound, per cent of control [40]: 83%
CCN1CCN(Cc2ccc(NC(=O)c3ccc(C)c(/C=C/c4cnc5[nH]ccc5c4OC)c3)cc2C(F)(F)F)CC1	0	100	1.4	0.1	5.5	0.9	12	100	100	0.15	77	0	100	2.2	0	7.7	0	61	83	55	kinase still bound, per cent of control [21]: 72%; kinase still bound, per cent of control [22]: 5.2%; kinase still bound, per cent of control [23]: 39%; kinase still bound, per cent of control [24]: 0.1%; kinase still bound, per cent of control [25]: 38%; kinase still bound, per cent of control [26]: 18%; kinase still bound, per cent of control [27]: 86%; kinase still bound, per cent of control [28]: 0.8%; kinase still bound, per cent of control [29]: 68%; kinase still bound, per cent of control [30]: 15%; kinase still bound, per cent of control [31]: 0.2%; kinase still bound, per cent of control [32]: 0.2%; kinase still bound, per cent of control [33]: 0.45%; kinase still bound, per cent of control [34]: 0.4%; kinase still bound, per cent of control [35]: 3.4%; kinase still bound, per cent of control [36]: 99%; kinase still bound, per cent of control [37]: 31%; kinase still bound, per cent of control [38]: 100%; kinase still bound, per cent of control [39]: 26%; kinase still bound, per cent of control [40]: 100%
COc1cc2c(Nc3ccc(NC(=O)c4ccccc4)cc3)ncnc2cc1OCCCN1CCOCC1	16	100	70	27	4.9	82	97	100	100	2	71	0	100	60	39	100	60	94	99	66	kinase still bound, per cent of control [21]: 100%; kinase still bound, per cent of control [22]: 17%; kinase still bound, per cent of control [23]: 100%; kinase still bound, per cent of control [24]: 0.15%; kinase still bound, per cent of control [25]: 100%; kinase still bound, per cent of control [26]: 44%; kinase still bound, per cent of control [27]: 100%; kinase still bound, per cent of control [28]: 34%; kinase still bound, per cent of control [29]: 100%; kinase still bound, per cent of control [30]: 42%; kinase still bound, per cent of control [31]: 83%; kinase still bound, per cent of control [32]: 100%; kinase still bound, per cent of control [33]: 100%; kinase still bound, per cent of control [34]: 100%; kinase still bound, per cent of control [35]: 2.7%; kinase still bound, per cent of control [36]: 100%; kinase still bound, per cent of control [37]: 67%; kinase still bound, per cent of control [38]: 100%; kinase still bound, per cent of control [40]: 99%
